# From ChEMBL document CHEMBL1126493, “Conformationally constrained analogues of diacylglycerol (DAG). 4. Interaction of -alkylidene--lactones with protein kinase C (PK-C)” (Bioorg Med Chem Lett, 1993)
# Key:
# [1] = biological target: Protein kinase C alpha type (Homo sapiens, UniProt P17252); assay: Inhibition of [20-3H]phorbol-12,13-dibutyrate (PDBU) binding to protein kinase C (alpha)
# [2] = biological target: Protein kinase C, PKC; classical/novel; assay: Inhibition of [20-3H]phorbol-12,13-dibutyrate (PDBU) binding to protein kinase C; assay type: protein assay
Ki [1] [µM],Ki [2] [µM],SMILES
0.6,,CCCCCCCCCCCCCC[C@@H]1C(=O)O[C@@H](CO)[C@@H]1OC(C)=O
0.5,0.6,CCCCCCCCCCCCCC[C@H]1C(=O)O[C@@H](CO)[C@@H]1OC(C)=O
